Among the test systems are OVCAR-8 ovarian; SK-MEL-5 melanoma; SK-MEL-28 melanoma; A498 renal; SW-620 colon; NCI-H226 lung; NCI-H23 lung; U251 CNS; 786-0 renal; HOP-62 NSCLC.
What all share (assay): NCI tumour cell line growth inhibition, 48 h

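96-well plates; 48 h exposure; 5 concentrations. Endpoints by linear interpolation between flanking doses. Not reached: highest tested concentration assigned. GI50 is the concentration that inhibits growth by half. TGI is the concentration that stops growth completely.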 Where only a bound is given, the exact number is not on record here.

Consider `CC(=O)C1=C(O)C=C2Oc3c(C(=O)/C=C/c4c(Cl)cccc4Cl)c(O)c(C)c(O)c3[C@]2(C)C1=O`, for which the GI50 was 0.533 µM in the assay on OVCAR-8 ovarian; 1.5 µM in the assay on SK-MEL-5 melanoma; 1.32 µM in the assay with SK-MEL-28 melanoma; 1.6 µM with A498 renal; 0.64 µM in the assay on SW-620 colon; 2.47 µM in the assay with NCI-H226 lung. Further, the GI50 in the assay on NCI-H23 lung was 1.23 µM; with U251 CNS it was 0.754 µM; with 786-0 renal it was 1.71 µM; in the assay on HOP-62 NSCLC, 1.58 µM. The TGI in the assay on OVCAR-8 ovarian stood at 2.06 µM; with SK-MEL-5 melanoma, 3.75 µM; in the assay with SK-MEL-28 melanoma it was 3.83 µM; in the assay with A498 renal, 3.66 µM; in the assay on SW-620 colon it was 3.13 µM; with NCI-H226 lung, 5.14 µM. Moreover, the TGI with NCI-H23 lung was found to be 5.82 µM; in the assay with U251 CNS, 4.09 µM; with 786-0 renal it was 5.44 µM; with HOP-62 NSCLC, 5.08 µM.

With `CCC[CH2][Sn]1([CH2]CCC)[O]CC(CN(C)Cc2ccccc2)[O]1` (stereo not given), the GI50 was 11.9 µM with OVCAR-8 ovarian; 11.9 µM in the assay with SK-MEL-5 melanoma; 13.3 µM in the assay on SK-MEL-28 melanoma; 15.1 µM in the assay on A498 renal; 2.77 µM in the assay on SW-620 colon; 17.2 µM with NCI-H226 lung. For the same compound, the GI50 in the assay on NCI-H23 lung is 3.18 µM; in the assay on U251 CNS, 5.75 µM; in the assay with 786-0 renal it was 4.41 µM; in the assay on HOP-62 NSCLC, 14.1 µM. Further, the TGI with OVCAR-8 ovarian was 24.6 µM; in the assay with SK-MEL-5 melanoma it was 24.3 µM; in the assay with SK-MEL-28 melanoma, 26.5 µM; in the assay with A498 renal, 29.4 µM; in the assay with SW-620 colon, 11.1 µM; with NCI-H226 lung, 35.8 µM. Besides, the TGI with NCI-H23 lung turned out to be 14.5 µM; in the assay on U251 CNS it was 17.8 µM; with 786-0 renal, 16.4 µM; in the assay on HOP-62 NSCLC, 27.7 µM.

As to `NCCCCCCCn1c2c(c3ccccc3c1=O)C(=O)c1ccccc1-2`, the GI50 is 1.69 µM in the assay with OVCAR-8 ovarian; 1.45 µM in the assay on SK-MEL-5 melanoma; 1.75 µM with SK-MEL-28 melanoma; 3.26 µM in the assay on A498 renal; 1.14 µM with SW-620 colon; 8.37 µM in the assay on NCI-H226 lung. The GI50 with NCI-H23 lung was 2.98 µM; in the assay on U251 CNS, 2.48 µM; in the assay on 786-0 renal, 1.38 µM; in the assay with HOP-62 NSCLC, 1.36 µM. Also, the TGI in the assay on OVCAR-8 ovarian came to 4.82 µM; with SK-MEL-5 melanoma, 2.77 µM; in the assay with SK-MEL-28 melanoma it was 3.23 µM; in the assay on A498 renal, 11.8 µM; in the assay on SW-620 colon, 2.42 µM; with NCI-H226 lung, 22.2 µM. Also, the TGI with NCI-H23 lung came to 8.36 µM; in the assay with U251 CNS, 7.07 µM; in the assay on 786-0 renal, 2.75 µM; in the assay with HOP-62 NSCLC, 2.73 µM.

Consider `CCOC(=O)C1c2[nH]c3ccccc3c2CCN1C(=O)c1ccc(OC)o1` (stereo not given), for which the TGI in the assay on OVCAR-8 ovarian, with SK-MEL-5 melanoma, with SK-MEL-28 melanoma, with A498 renal, with SW-620 colon and in the assay on NCI-H226 lung was greater than 10 µM throughout. The TGI in the assay on NCI-H23 lung, in the assay on U251 CNS, in the assay with 786-0 renal and in the assay with HOP-62 NSCLC was greater than 10 µM in each case.

In the case of `CNC(=O)c1ccccc1Nc1nc(Nc2cc(OC)c(OC)c(OC)c2)ncc1Br`, the GI50 with OVCAR-8 ovarian is 0.0483 µM; in the assay with SK-MEL-5 melanoma it was 0.054 µM; in the assay on SK-MEL-28 melanoma, 0.0667 µM; in the assay on A498 renal, less than 0.0109 µM; with SW-620 colon, 0.0241 µM; in the assay on NCI-H226 lung it was 0.0265 µM. Moreover, the GI50 is 0.035 µM in the assay with NCI-H23 lung, 0.0426 µM in the assay with U251 CNS, 0.0234 µM in the assay on 786-0 renal and 0.0349 µM in the assay with HOP-62 NSCLC. Besides, the TGI turned out to be 12.2 µM in the assay with OVCAR-8 ovarian; 1.18 µM in the assay on SK-MEL-5 melanoma; 2.11 µM in the assay on SK-MEL-28 melanoma; 0.0368 µM in the assay with A498 renal; 5.76 µM in the assay on SW-620 colon; 0.214 µM with NCI-H226 lung. Moreover, the TGI was determined as 1.12 µM in the assay on NCI-H23 lung, 3.38 µM with U251 CNS, 1.85 µM in the assay with 786-0 renal and 2.31 µM with HOP-62 NSCLC.

Values taken from PubChem BioAssay (NCI).
